Patent US11197856B2, “Bicyclic compounds and methods for their use in treating autism” (priority 2013, dated 2021)

How the values were obtained:
Krox24 = Krox24 immunohistochemical staining of hippocampus; type: in vivo, male Wistar rats; conditions: CA1-2 regions; vs vehicle
Procedure: Aged rats (male Wistar rats, 18-20 months old) were divided into four groups: two vehicle-treated (groups 1 and 3) and two G-2-AllylP treated (groups 2 and 4) (all groups n=6-8). Cyclic G-2-AllylP was synthesised by the Department of Medicinal Chemistry and dissolved in normal saline before the treatment. On day 1 a single dose of cyclic G-2-AllylP was given centrally (20 ng/animal, i.c.v.) to the animals in groups 2 and 4; saline was administered to groups 1 and 3. The memory tests using Novel Object Recognition Test started either on day 3 (groups 1 and 2) or 24 (groups 3 and 4) after the treatment. On the completion of the NORT, the rats were killed with an overdose of sodium pentobarbital and were perfused transcardially with normal saline followed by 10% formalin. Tissues collected at day 7 in groups 1 and 2, and at day 28 from groups 3 and 4. The brains were kept in the same fixative for a minimum of 2 days before being processed using a standard paraffin embedding procedure. Briefly, small blocks (10×10×3 mm) of tissue were fixed for up to 24 hrs. The blocks were then infiltrated and embedded with paraffin and cut in ribbons and mounted on slides. Slides were then stored until immunostaining was commenced. Synaptogenesis in brain tissue was examined using immunohistochemical staining.
The neuronal transcript factor Krox24 staining is used as a marker for neuronal plasticity. […]

[1] = tested on: fmr1-knockout hippocampal neurons; experiment: Dendritic spine density in hippocampal cell cultures; type: cell-based, mice
Procedure: Hippocampal cell cultures were prepared from wild type and fmr1-knockout fetal mice (14-16 days of gestation). Briefly, mice were kill by cervical dislocation under chloroform anesthesia, and dissociated hippocampal cells were plated in 13 mm multiwell vessels (Falcon Primaria). A plating medium of MEM-Eagle's salts (supplied glutamine free) supplemented with 10% fetal bovine serum was used. Cultures were kept at 37° C. in a humidified 3% CO2 atmosphere. After 3d in vitro, green fluorescent protein (GFP) was added to monitor dendritic spine morphogenesis during time-course of culture (Ethell and Yamaguchi, 1999; Ethell et al., 2001, Henkemeyer et al., 2003). The dendritic spines usually formed between 7 and 14 days in vitro (DVI). By 14 DIV most dendritic protrusions were spines. The mean (±SD) spine density was measured as number of spines per micrometer and experiments were run in triplicate.

Akt = experiment: Phosphorylated AKT by Western blot; type: in vivo, mice; conditions: full brain lysates; fmr1-knockout animals; normalized to GAPDH
Procedure: Phosphorylation levels of ERK1/2 and Akt of full brain lysates were evaluated using Western blots. The mice were sacrificed and the brains removed 12 days after the last injection, and immediately after the last behavioral test. Other studies measured pERK and pAkt in blood lymphocytes. The results of Western analysis were normalized to the amount of GAPDH protein seen in each blot.

adult MeCP2+/- mice = experiment: Ocular dominance (OD) plasticity, optical imaging of intrinsic signals; type: in vivo; conditions: 4 days monocular deprivation
Procedure: Adult (>P60) wild type (SVEV or BL6) and MeCP2 (+/−) mutant females (BL6) are used for this experiment. The wild type control group is composed of both wild type littermates of MeCP2+/− females or wild type age matched SVEV females. For monocular deprivation, animals are anesthetized with Avertin (0.016 ml/g) and the eyelids of one eye is sutured for 4 days. Prior to imaging, the suture is removed and the deprived eye re-opened. Only animals in which the deprivation sutures are intact and the condition of the deprived eye appears healthy are used for the imaging session. For cG-2-AllylP signaling activation, a solution containing cG-2-AllylP is injected intra-peritoneally (IP) daily for the entire period of deprivation. For the imaging sessions mice are anesthetized with urethane (1.3 g/kg; 20% of the full dosage is administered IP each 20-minutes up to the final dosage, 0.02 ml of cloroprothixene 1% is also injected together with the first administration). The skull is exposed and a custom-made plate is glued on the head to minimize movement. The skull is thinned over VI with a dremel drill and covered with an agarose solution in saline (1.3%) and a glass coverslip. During the imaging session, the animal is constantly oxygenated, its temperature maintained with a heating blanket and the eyes periodically treated with silicone oil; physiological conditions are constantly monitored. […]

C=CC[C@]12CCCN1C(=O)CNC2=O [cG-2-AllylP, (8aS)-Allyl-hexahydropyrrolo[1,2-a]pyrazine-1,4-dione]
density of the Krox24 staining (Krox24): trend towards the increased density
spine density (mean±SD) ([1]; 0.5 nM, n=3): 0.36±0.02 number of spines per micromete
spine density (mean±SD) ([1]; 5 nM): 0.25±0.03 number of spines per micromete
spine density (mean±SD) ([1]; 50 nM): 0.27±0.10 number of spines per micromete
phosphorylated AKT (Akt): about 0.9 UA units
OD plasticity (adult MeCP2+/- mice): reduces the OD plasticity
